The target in this experiment is high molecular oligomer Aβ (Aβ1-42) (Homo sapiens, UniProt P05067). Briefly: Influence of test compound on Aβ oligomer formation, measured by BAN50a / HRP-labeled BAN50a ELISA. To be noted: Curcumin with various concentrations added to Aβ42 solutions; incubated at 4° C. for a whole day and night; ELISA of Example 1. It is filed as biochemical. Background: An ELISA detects its analyte on a solid surface through an enzyme-linked reagent.

This is an account of results in patent US20110104821A1, “ABeta-OLIGOMER MEASUREMENT METHOD” (priority 2008, published 2011).

Chain of high molecular oligomer Aβ (Aβ1-42) (P05067 672-713): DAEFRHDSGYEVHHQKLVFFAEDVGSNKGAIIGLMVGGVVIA
Protocol: ELISA using BAN50a and HRP labeled BAN50a (quantification of oligomer Aβ) was performed by the following steps.
(1) BAN50a antibody was dissolved in coating buffer A to a concentration of 10 μg/ml (75 μl/well), added to an EIA96 well plate (high maximum binding clear plate, Greiner), and incubated in a refrigerating room (about 4° C.) for a whole day and night. (2) After washing 3 times with PBS (calcium, magnesium-free; hereinafter sometimes to be abbreviated as PBS(−)), blocking buffer B was added to 100 μL/well and the plate was stored. (3) On the day of experiment, blocking buffer B was discarded and the plate was washed twice with PBS(−), and 25 μl of buffer C was added. […] (5) The sample was incubated in a refrigerating room (about 4° C.) for a whole day and night. (6) The plate was washed 4 times with PBS(−). […] (11) Thereafter, 1 M phosphoric acid solution (75 μl/well) was added to the reacted substrate solution to terminate the reaction, and OD450 was measured by a multi-label counter (PerkinElmer). […]
(3) The tube was incubated at 4° C. for a whole day and night. (4) The reaction mixture was diluted 100-fold with buffer C (mentioned above), and measured by the aforementioned ELISA. (5) The inhibitory rate was calculated with that of the vehicle group as 100%. […]

Turning to `COc1cc(/C=C/C(=O)CC(=O)/C=C/c2ccc(O)c(OC)c2)ccc1O` [curcumin], the “signal of oligomer Aβ (inhibition of formation of high molecular oligomer Aβ)” value is “specifically decreased”.
